Drawing on patent US20040186077A1, “Novel heteroaryl phosphonates as cardioprotective agents” (Medicure International Inc., priority 2003, published 2004), this text covers myocardial infarct size for 1 compound.

This experiment deals with Male Wistar rats. Kind of experiment: Ischemia reperfusion: LAD occlusion and reperfusion, infarct size as percentage of AAR. It counts as in vivo. The following applies: 32 mg/kg i.v. bolus 5 min before ischemia; regional myocardial ischemia 25 min, reperfusion 2 h; P=0.047 unpaired t-test; vehicle infarct size 56±3% of the AAR. The procedure:
Male Wistar rats (200-300 g, Tuck, Rayleigh, Essex, U.K.) were anesthetised with thiopentone sodium (Intraval®, 120 mg/kg i.p.; Rhone-Merrieux, Essex, U.K.). The rats were tracheotomised, intubated and ventilated with a Harvard ventilator (70 strokes/min, tidal volume: 8-10 mL/kg, inspiratory oxygen concentration: 30%). Body temperature was maintained at 38±1° C. The right carotid artery was cannulated and connected to a pressure transducer (MLT 1050, AD Instruments Ltd, Hastings, UK) to monitor mean arterial blood pressure (MAP) and heart rate (HR), which were continuously recorded on a data acquisition system such as Powerlab® Version 4.0.4, AD Instruments, Hastings, UK. The right jugular vein was cannulated for drug administration and the administration of Evans Blue dye (at the end of the experiment). A lateral thoracotomy was performed and the heart was suspended in a temporary pericardial cradle. A snare occluder was placed around the left anterior descending coronary artery (LAD). After completion of the surgical procedure the animals were allowed to stabilise for 30 min before LAD ligation. Five minutes prior to the onset of myocardial ischemia, a bolus injection (i.v.) of either vehicle or phosphonate was administered. The coronary artery was occluded at time 0 by tightening of the occluder. […]

As to `Cc1nc(-c2ccccc2)c(C(F)P(=O)(O)O)c(CO)c1O` (stereo not shown) [Compound 38, [Fluoro-(5-hydroxy-4-hydroxymethyl-6-methyl-2-phenyl-pyridin-3-yl)-methyl]-phosphonic acid], the myocardial infarct size result is “reduced myocardial infarct size”.
